Source: publication PMC10144546, “The Novel Artemisinin Dimer Isoniazide ELI-XXIII-98-2 Induces c-MYC Inhibition, DNA Damage, and Autophagy in Leukemia Cells” (Pharmaceutics, 2023)

Target: T1, c-MYC (Homo sapiens, UniProt P01106)
T1 construct: Recombinant human c-MYC protein (ab169901)
Assay: microscale thermophoresis with fluorescently labelled recombinant human c-MYC
Assay type: binding

T1 sequence (P01106 16-454): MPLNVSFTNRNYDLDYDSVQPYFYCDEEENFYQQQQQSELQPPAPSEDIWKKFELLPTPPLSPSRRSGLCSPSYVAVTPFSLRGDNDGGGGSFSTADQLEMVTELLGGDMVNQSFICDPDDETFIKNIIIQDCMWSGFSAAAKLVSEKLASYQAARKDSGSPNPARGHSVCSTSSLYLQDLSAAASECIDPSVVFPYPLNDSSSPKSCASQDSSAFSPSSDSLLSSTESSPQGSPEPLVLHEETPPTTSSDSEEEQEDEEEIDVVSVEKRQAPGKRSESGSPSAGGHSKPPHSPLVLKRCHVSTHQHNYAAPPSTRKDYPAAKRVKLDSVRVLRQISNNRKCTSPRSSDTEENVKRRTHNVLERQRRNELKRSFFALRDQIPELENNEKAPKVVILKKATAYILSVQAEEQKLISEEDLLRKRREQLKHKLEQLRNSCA

Structure (SMILES): C[C@H]1[C@@H](OCC(CO[C@H]2O[C@@H]3O[C@@]4(C)CC[C@H]5[C@H](C)CC[C@@H]([C@H]2C)[C@@]35OO4)NNC(=O)c2ccncc2)O[C@@H]2O[C@@]3(C)CC[C@H]4[C@H](C)CC[C@@H]1[C@@]24OO3 (stereo partly shown) [ELI-XXIIID-98-2, ELI-XXIII-98-2]
- Kd: 1190 ± 240 nM
